Data as given in patent US7423149B2, “Substituted n-aryl amidines as selective D1 dopamine receptor antagonists for the treatment of obesity and CNS disorders” (Schering Corporation, priority 2003, dated 2008).

Molecular target: T1, human Dopamine D1 receptor (Homo sapiens, UniProt P21728)
T1 construct: expressed in transfected cells; host or cells: Ltk- cells (mouse fibroblasts), membrane preparation
Assay: radioligand binding competition assay, displacement of [3H]SCH 23390 from D1 receptor (Ltk-cells membranes);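 further: under 5 nM class also requires D2 to D1 selectivity above 500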
Conditions: class combines Ki (D1) and, for A and B, D2:D1 selectivity (Ki D2 / Ki D1); read-out: D1 binding and D2:D1 Selectivity
Excerpt: Biological Activity: Compounds from this disclosure have been biologically characterized by their ability to displace a known D1-like selective ligand, [3H]SCH 23390 from the human Dopamine D1 receptor, and a known D2-like selective ligand, [3H] Methylspiperone, from the human Dopamine D2 and D4 receptors.
Affinity values (Ki) of compounds at human dopamine receptors were ascertained using radioligand binding competition assays. Cells expressing D1 (Ltk-cells), D2 (long variant, Ltk-cells), D4 (CHO cells) and D5 (GH4C1 cells) receptors were lysed in hypotonic buffer for membrane preparation. Membranes were incubated with various concentrations of test compound and 1 nM [3H] SCH 23390 (D1 and D5) and 0.2 nM [3H] Methylspiperone for (D2 and D4) assays. Non-specific binding was defined as binding in the presence of 10 micromolar of SCH 23390 for D1 and D5 assays and 10 micromolar butaclamol for D2 and D4 assays. Following incubation to equilibrium (1 hour at room temperature), bound radioligand was separated from free by rapid filtration. Bound radioactivity on the dried filters was quantified by liquid scintillation counting.
Selectivity is determined by dividing Ki for D2, D4 or D5 receptors by Ki for D1 receptor.

T1 sequence (P21728 whole entry): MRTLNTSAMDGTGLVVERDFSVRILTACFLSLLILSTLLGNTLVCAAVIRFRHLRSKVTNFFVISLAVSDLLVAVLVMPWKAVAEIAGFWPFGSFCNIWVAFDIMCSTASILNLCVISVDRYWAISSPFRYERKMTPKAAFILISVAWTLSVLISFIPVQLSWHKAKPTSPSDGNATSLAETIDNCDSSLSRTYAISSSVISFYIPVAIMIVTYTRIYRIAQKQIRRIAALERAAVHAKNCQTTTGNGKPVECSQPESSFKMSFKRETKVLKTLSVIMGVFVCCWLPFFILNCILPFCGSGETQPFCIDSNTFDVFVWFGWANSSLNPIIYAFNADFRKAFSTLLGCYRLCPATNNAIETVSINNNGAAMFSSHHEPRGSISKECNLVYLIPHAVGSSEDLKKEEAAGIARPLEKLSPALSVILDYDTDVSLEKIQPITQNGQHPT

| Ki | SMILES |
| --- | --- |
| 0.05 to 10 µM | N=C(/C=C/c1ccc(-n2ccnc2)cc1)Nc1ccc(Cl)cc1 [Example 88] |
| 0.05 to 10 µM | N=C(Nc1ccc(Cl)cc1)c1ccc2[nH]ccc2c1 [Example 89] |
| 0.05 to 10 µM | N=C(/C=C/c1ccc(N2CCCC2)cc1)Nc1ccc(Cl)cc1 [Example 90] |
| 0.05 to 10 µM | COc1ccc(/C=C/C(=N)Nc2cccc(C#N)c2)cc1 [Example 91] |
| 0.05 to 10 µM | N=C(/C=C/c1ccc(O)c(Cl)c1)Nc1ccc(Cl)cc1 [Example 92] |
| 0.05 to 10 µM | N=C(/C=C/c1ccc(N2CCN(c3cccc(Cl)c3)CC2)cc1)Nc1ccc(Cl)cc1 [Example 93] |
| 0.05 to 10 µM | COc1cccc2ccc(C(=N)Nc3ccc(Cl)cc3)nc12 [Example 94, N-(4-chloro-phenyl)-8-methoxy-quinoline-2-carboxamidine] |
| 0.05 to 10 µM | Cc1ccc(C)n1-c1ccc(/C=C/C(=N)Nc2ccc(Cl)cc2)cc1 [Example 95] |
| 0.05 to 10 µM | COc1ccc(NC(=N)/C=C/c2ccc(N3CCNCC3)cc2Cl)cc1Cl [Example 96] |
| 0.05 to 10 µM | N=C(Nc1ccc(Cl)cc1)c1ccc2cc(N3CCN(C4CCCCC4)CC3)ccc2c1 [Example 97] |
| 0.05 to 10 µM | N=C(/C=C/c1ccc(N)cc1)Nc1ccc(Cl)cc1 [Example 98] |
| 0.05 to 10 µM | N=C(/C=C/c1ccc(-c2cc(F)cc(F)c2)cc1)Nc1ccc(Cl)cc1 [Example 99] |
| 0.05 to 10 µM | CCn1c2ccccc2c2cc(/C=C/C(=N)Nc3ccc(Cl)cc3)ccc21 [Example 100] |
| 0.05 to 10 µM | CN(C)c1ccc(/C=C/C(=N)Nc2ccc(Cl)cc2)c2ccccc12 [Example 101] |
| 0.05 to 10 µM | N=C(/C=C/c1ccc(Cl)c(Cl)c1)Nc1ccc(Cl)cc1 [Example 102] |
| 0.05 to 10 µM | N=C(/C=C/c1c(Cl)cccc1Cl)Nc1ccc(Cl)cc1 [Example 103] |
| 0.05 to 10 µM | N=C(/C=C/c1ccc(N2CCN(c3ccccc3)CC2)cc1)Nc1ccc(Cl)cc1 [Example 104] |
| 0.05 to 10 µM | N=C(/C=C/c1ccc2c(c1)OCCO2)Nc1ccc(Cl)cc1 [Example 105] |

| Ki | SMILES |
| --- | --- |
| 0.05 to 10 µM | N=C(Nc1ccc(Cl)cc1)c1ccc2cc(O)ccc2c1 [Example 106, N-(4-chloro-phenyl)-6-hydroxy-naphthalene-2-carboxamidine] |
| 0.05 to 10 µM | COc1ccc(-c2ccc(/C=C/C(=N)Nc3ccc(Cl)cc3)cc2)cc1OC [Example 107] |
| 0.05 to 10 µM | N=C(/C=C/c1ccc(CN2CCCC2)cc1)Nc1ccc(Cl)cc1 [Example 108] |
| 0.05 to 10 µM | N=C(/C=C/c1cc(Cl)cc(Cl)c1)Nc1ccc(Cl)cc1 [Example 109] |
| 0.05 to 10 µM | N=C(/C=C/c1ccc(CNCc2ccccc2)cc1)Nc1ccc(Cl)cc1 [Example 110] |
| 0.05 to 10 µM | N=C(/C=C/c1ccc(-c2ccc(CO)cc2)cc1)Nc1ccc(Cl)cc1 [Example 111] |
| 0.05 to 10 µM | CN1CCN(c2ccc3cc(C(=N)Nc4ccc(Cl)cc4)ccc3c2)CC1 [Example 112] |
| 0.05 to 10 µM | COc1ccccc1C1CCN(c2ccc(/C=C/C(=N)Nc3ccc(Cl)cc3)cc2)CC1 [Example 113] |
| 0.05 to 10 µM | N=C(/C=C/c1ccccc1)Nc1ccc(Cl)cc1 [Example 114] |
| 0.05 to 10 µM | CCCCN(CCCC)c1ccc(/C=C/C(=N)Nc2ccc(Cl)cc2)cc1 [Example 115] |
| 0.05 to 10 µM | N=C(/C=C/c1ccc(CN2CCOCC2)cc1)Nc1ccc(Cl)cc1 [Example 116] |
| 0.05 to 10 µM | COc1ccc(NC(=N)/C=C/c2ccccc2)cc1 [Example 117] |
| 0.05 to 10 µM | N=C(Nc1ccc(Cl)cc1)c1ccc(-c2ccccc2)cc1 [Example 118] |
| 0.05 to 10 µM | COc1ccc2cc(C(=N)Nc3ccc(Cl)cc3F)ccc2c1 [Example 119] |
| 0.05 to 10 µM | N=C(/C=C/c1ccc(-c2cccc(C(=O)O)c2)cc1)Nc1ccc(Cl)cc1 [Example 120] |
| 0.05 to 10 µM | COc1ccc(NC(=N)/C=C/c2ccc(Cc3cccnc3)cc2)cc1 [Example 121] |
| 0.05 to 10 µM | N=C(/C=C/c1ccc(-c2ccc(C(F)(F)F)cc2)cc1)Nc1ccc(Cl)cc1 [Example 122] |
| 0.05 to 10 µM | N=C(/C=C/c1ccc(N2CCNCC2)cc1Cl)Nc1ccc(O)c(Cl)c1 [Example 123] |
